Data on 16 compounds can be found in paper PMC11003683, “Pyrrole-based inhibitors of RND-type efflux pumps reverse antibiotic resistance and display anti-virulence potential” (PLOS Pathogens, 2024).

Data set [1] in a line: in vitro. Also noted: MTT viability assay on human PBMCs, absorbance at 570 nm. To be noted: human, pbmc; 24 h exposure, MTT; read-out: IC50. As to the method: (§1) The cytotoxicity assay was performed on Human Peripheral Blood Mononuclear cells (H-PBMC, Himedia, India) according to the manufacturer’s instructions. The H-PBMC (40,000 cells/well in 100 μL volume) suspension in RPMI-1640 media (containing 10% fetal bovine serum and 50 U/mL antibiotic-antimycotic solution) (Himedia^, India) was dispensed into 96-well polystyrene tissue culture-treated flat-bottom plates (Corning, U.S.). The plates were incubated for 48 h in a CO2 (5%) incubator at 37°C. After 48 h, the compounds (Ar1-Ar24) were added to the plates in a fresh medium and again incubated for 24 h in a CO2 (5%) incubator at 37°C. Next, MTT (1 mg/mL) was added to the wells, followed by incubation for 4–5 h. The formazan crystals were solubilized using a solubilizing solution (40% (v/v) dimethyl formamide in 2% (v/v) glacial acetic acid added with 16% sodium dodecyl sulfate), and the absorbance (OD570nm) was measured. Considering the lack of effect of EPIs on eukaryotic Ca^2+ ion channels, we further evaluated cytotoxicity on Human Peripheral Blood Mononuclear cells (H-PBMC). […] Our front runners, Ar1, Ar5, and Ar11, had extremely low toxicity toward H-PBMCs. […] Taken together, these experiments provide substantial evidence that Ar5 is non-toxic in vitro and can be used for therapeutic applications in vivo.

Data set [2] in a line: in vitro. On the set-up: species or system H-PBMC; MTT viability assay, absorbance at 570 nm, cytotoxicity IC50. The following applies: human, pbmc; read-out: IC50. As to the method: as §1
The subject of data set [3] is T1, Escherichia coli ATCC BAA-2774.
T1 construct: ATCC BAA-2774
The experiment in a line: microbe, parasite or virus in culture. Also noted: MIC of antibiotic alone from antibiotic potentiation assay against XDR strain. The following applies: ATCC BAA-2774 / ATCC BAA-2782, read-out: MIC (μg/mL) / Klebsiella pneumoniae ATCC BAA-2782 / Escherichia coli ATCC BAA-2774. An excerpt:
(§2) We further tested the potentiation of Ar1, Ar5, Ar11, and Ar18 to RND efflux pump substrates (ciprofloxacin, levofloxacin, tetracycline, tigecycline, erythromycin, piperacillin, and chloramphenicol) against XDR E. coli ATCC BAA-2774 (expressing AcrAB-TolC), K. pneumoniae ATCC BAA-2782 (expressing AcrAB-TolC), and P. aeruginosa ATCC BAA-2795 (expressing MexAB-OprM). […] The fact that compounds potentiate a given antibiotic against efflux pump over-expressed strain but not deletion provides substantial evidence that the inhibition effect is RND efflux pump specific targeting AcrAB and MexAB efflux systems. The antibiotics, chemicals, and dyes were purchased from Sigma-Aldrich Chemical Co. (St. Louis, MO, United States) unless stated otherwise. The E. coli wild-type K-12 AG100 (argE3 thi-1 rpsLxylmtlΔ(gal-uvrB)supE44) and its derivatives, AcrB over-expressing AG100tet and AcrAB knockout AG100A (ΔacrAB::Tn903 Kan^r) were used in the study. AG100tet is derived from AG100 by gradual stepwise exposure to increased concentrations of tetracycline and was grown in the presence of 8 μg/mL tetracycline to maintain efflux pump over-expression. AG100A was grown in the presence of 100 μg/mL kanamycin to preserve the transposon. The P. aeruginosa ATCC BAA-2795 over-expressing MexAB-OprM (Chromachemie, India), and PAO750 (PAO1: ΔmexAB-oprM, ΔmexCD-oprJ, ΔmexEF-oprN, ΔmexXY) were also used in the study. The strains P. aeruginosa ATCC 27853, P. aeruginosa ATCC 15692 (PAO1), K. Pneumoniae ATCC BAA-2782, K. Pneumoniae ATCC 700603, and E. coli ATCC BAA-2774, were purchased from Himedia, India. All the strains were grown in BBL Cation-adjusted Mueller Hinton Broth (CA-MHB; BD, U.S.) at 37°C under standard conditions. Mueller Hinton Agar (MHA; Himedia, India) plates were used for bacterial viability counting.

Data set [4] concerns T2, Klebsiella pneumoniae ATCC BAA-2782.
T2 construct: ATCC BAA-2782
Nature of the data set: microbe, parasite or virus in culture. On the set-up: MIC of antibiotic alone from antibiotic potentiation assay against XDR strain. To be noted: ATCCBAA2782, read-out: MIC (μg/mL) / Klebsiella pneumoniae ATCC BAA-2782.
Source text: as §2

In data set [5] the test system is T3, Pseudomonas aeruginosa ATCC BAA-2795.
T3 construct: ATCC BAA-2795
Nature of the data set: microbe, parasite or virus in culture. On the set-up: MIC of antibiotic alone from antibiotic potentiation assay against XDR strain. To be noted: ATCC BAA-2782 / ATCC BAA-2795, read-out: MIC (μg/mL) / Klebsiella pneumoniae ATCC BAA-2782 / Pseudomonas aeruginosa ATCC BAA-2795.
Source text: as §2

In brackets after ≈: the same amount, converted by molar mass. Like-named read-outs stand apart in the source and are kept apart here. Some results are limits rather than exact numbers.

On to `COC(=O)c1cc(-c2ccc(F)cc2)cn1Cc1ccc(F)cc1` [Ar1], for which the CC50 at 24 h in data set [1] and in data set [2] was 256 µg/mL (≈ 782 µM) in each case.

With `COC(=O)c1cc(-c2cccc(NC(C)=O)c2)cn1Cc1ccc(C)cc1` [Ar11], the CC50 at 24 h in data set [1] and in data set [2] was above 256 µg/mL in each case.

As for `CCOC(=O)c1cc(-c2ccc(C(F)(F)F)cc2)cn1Cc1ccc(F)cc1` [Ar16], the CC50 at 24 h in data set [1] and in data set [2] was 256 µg/mL (≈ 654 µM) throughout.

Regarding `CCOC(=O)c1cc(-c2ccc(F)cc2)c[nH]1` [Ar17], the CC50 at 24 h in data set [1] and in data set [2] was 256 µg/mL (≈ 1100 µM) in each case.

With `CCOC(=O)c1cc(-c2ccc(F)cc2F)cn1Cc1ccc(F)cc1` [Ar18], the CC50 at 24 h in data set [1] and in data set [2] was above 128 µg/mL in each case.

For the compound `CCOC(=O)c1cc(-c2ccc(F)cn2)cn1Cc1ccc(F)cc1` [Ar19], the CC50 at 24 h in data set [1] and in data set [2] was above 128 µg/mL in each case.

Consider `CCOC(=O)c1cc(-c2cccc(CO)c2)cn1Cc1ccc(F)cc1` [Ar20], for which the CC50 at 24 h in data set [1] and in data set [2] was above 128 µg/mL each time.

Take `CCOC(=O)c1cc(-c2ccc(C#N)cc2)cn1Cc1ccc(F)cc1` [Ar21]: the CC50 at 24 h in data set [1] and in data set [2] was 256 µg/mL (≈ 735 µM) in each case.

For `CCOC(=O)c1cc(-c2ccc(C(F)(F)F)cc2)cn1Cc1ccc(C)cc1` [Ar24], the CC50 at 24 h in data set [1] and in data set [2] was 256 µg/mL (≈ 661 µM) in each case.

Take `O=C(N[C@H](CO)[C@H](O)c1ccc([N+](=O)[O-])cc1)C(Cl)Cl` [Chloramphenicol]: the MIC in data set [3] was determined as 32 µg/mL; in data set [4] it was 16 µg/mL; in data set [5] it was 256 µg/mL.

Turning to `O=C(O)c1cn(C2CC2)c2cc(N3CCNCC3)c(F)cc2c1=O` [Ciprofloxacin], the MIC in data set [3] amounted to 256 µg/mL; in data set [4], 128 µg/mL; in data set [5], 256 µg/mL.

For the compound `CC[C@H]1OC(=O)[C@H](C)[C@@H](O[C@H]2C[C@@](C)(OC)[C@@H](O)[C@H](C)O2)[C@H](C)[C@@H](O[C@@H]2O[C@H](C)C[C@H](N(C)C)[C@H]2O)[C@](C)(O)C[C@@H](C)C(=O)[C@H](C)[C@@H](O)[C@]1(C)O` [Erythromycin], the MIC came out at 512 µg/mL in data set [3], 128 µg/mL in data set [4] and 512 µg/mL in data set [5].

`C[C@H]1COc2c(N3CCN(C)CC3)c(F)cc3c(=O)c(C(=O)O)cn1c23` [Levofloxacin]: the MIC in data set [3] stood at 32 µg/mL; in data set [4] it was 32 µg/mL; in data set [5] it was 256 µg/mL.

`CCN1CCN(C(=O)N[C@@H](C(=O)N[C@@H]2C(=O)N3[C@@H]2SC(C)(C)[C@@H]3C(=O)O)c2ccccc2)C(=O)C1=O` [Piperacillin]: the MIC is 512 µg/mL in data set [3], 1020 µg/mL in data set [4] and 256 µg/mL in data set [5].

`CN(C)[C@@H]1C(O)=C(C(N)=O)C(=O)[C@@]2(O)C(O)=C3C(=O)c4c(O)cccc4[C@@](C)(O)[C@H]3C[C@@H]12` [Tetracycline]: the MIC in data set [3] amounted to 256 µg/mL; in data set [4] it was 4 µg/mL; in data set [5] it was 32 µg/mL.

`CN(C)c1cc(NC(=O)CNC(C)(C)C)c(O)c2c1C[C@H]1C[C@H]3[C@H](N(C)C)C(O)=C(C(N)=O)C(=O)[C@@]3(O)C(O)=C1C2=O` [Tigecycline]: the figures for the MIC in data set [3], in data set [4] and in data set [5] were 128 µg/mL, 64 µg/mL and 256 µg/mL, respectively.
